Kb data for one compound are collected here from US9035071B2, “Compounds acting at multiple prostaglandin receptors giving a general anti-inflammatory response” (Allergan, Inc., priority 2011, dated 2015).

Common to all, as to format: cell-based
Assay [1] concerns the target T1, human recombinant prostanoid TP receptor (Homo sapiens, UniProt P21731).
T1 construct: expressed in transfected cells
T1 sequence (P21731 1-343): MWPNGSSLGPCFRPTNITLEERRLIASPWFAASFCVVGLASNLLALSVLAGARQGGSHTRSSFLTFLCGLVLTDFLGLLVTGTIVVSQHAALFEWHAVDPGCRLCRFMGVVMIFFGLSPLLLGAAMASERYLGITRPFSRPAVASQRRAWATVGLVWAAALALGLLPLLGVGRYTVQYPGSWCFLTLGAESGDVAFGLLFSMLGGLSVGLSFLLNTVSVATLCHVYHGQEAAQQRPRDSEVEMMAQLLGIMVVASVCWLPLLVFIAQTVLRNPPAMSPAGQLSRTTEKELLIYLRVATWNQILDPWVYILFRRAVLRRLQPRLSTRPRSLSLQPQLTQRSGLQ
In words: FLIPR Ca2+ signaling, PG antagonist activity, TP. Particulars: antagonism of standard agonist U-46619, HEK-293 EBNA stable cells. On the procedure:
(§1) The above compounds were tested for PG antagonist activity as follows using human recombinant prostanoid receptor (DP1, EP1-4, FP, IP and TP) stable cell lines:
(§2) In order to measure the response of Gs and Gi coupled prostanoid receptors as a Ca^2+ signal, chimeric G protein cDNAs were used. Stable cell lines over-expressing human prostanoid DP1, EP1-4, FP, IP, and TP receptors were established as follows:
(§3) Briefly, human prostanoid DP1, EP2, and EP4 receptor cDNAs were co-transfected with chimeric Gqs cDNA containing a haemagglutanin (HA) epitope; human prostanoid EP3 receptors were co-transfected with chimeric Gqi-HA; human EP1, FP, IP, and TP receptor cDNAs were expressed with no exogenous G-proteins. Gqs and Gqi chimeric cDNAs (Molecular Devices, Sunnyvale, Calif., U.S.A.), as well as cDNAs of prostanoid receptors, were cloned into a pCEP4 vector with a hygromycin B selection marker. Transfection into HEK-293 EBNA (Epstein-Barr virus nuclear antigen) cells was achieved by the FuGENE 6 transfection Reagent (Roche Applied Science, Indianapolis, Ind., USA). Stable transfectants were selected according to hygromycin resistance. Because Gqs and Gqi contained an HA epitope, G-protein expression was detected by Western blotting analysis using anti-mouse HA monoclonal antibody and horseradish peroxidase (HRP)-conjugated secondary antibody, while functional expression of prostanoid receptors was detected by FLIPR screening (Matias et al., 2004). These stable cell lines were validated using previously published antagonists at 10 μM against serial dilutions of standard agonists by FLIPR functional assays for Ca^2− Signaling (as described below).
(§4) Ca^2+ signaling studies were performed using a FLIPR TETRA system (Molecular Devices, Sunnyvale, Calif., USA) in the 384-format. This is a high-throughput instrument for cell-based assays to monitor Ca^2+ signaling associated with GPCRs and ion channels. Cells were seeded at a density of 5×10^4 cells/well in BioCoat poly-D-lysine coated, black wall, clear bottom 384-well plates (BD Biosciences, Franklin lakes, N.J., USA) and allowed to attach overnight in an incubator at 37° C. The cells were then washed twice with HBSS-HEPES buffer (Hanks' balanced salt solution without bicarbonate and phenol red, 20 mM HEPES, pH 7.4) using an ELx405 Select CW Microplate Washer (BioTek, Winooski, Vt., USA). After 60 min of dye-loading in the dark using the Ca^2+-sensitive dye Fluo-4AM (Invitrogen, Carlsbad, Calif., USA), at a final concentration of 2×10^−6M, the plates were washed 4 times with HBSS-HEPES buffer to remove excess dye and leaving 50 μl of buffer in each well. The plates were then placed in the FLIPR TETRA instrument and allowed to equilibrate at 37° C. AGN-211377 was added in a 25 μl volume to each well to give final concentrations of 0.1 μM, 0.3 μM, 1 μM, 3 μM, 10 μM, and 30 μM; or 0.067 μM, 0.1 μM, 0.2 μM, 0.3 μM, 0.67 μM, and 1 μM for cells over-expressing TP receptors. After 4.5 minutes, a 7-point serial dilution of the standard agonist for the corresponding receptor, in a 25 μl volume was injected at the final concentrations from 10^−11M to 10^−5M in 10-fold serial dilution increments for cells expressing human recombinant DP1, EP1, EP2, EP3, EP4, FP, and IP receptors. The dose range for the standard agonist for human recombinant TP receptors was from 10^−12M to 10^−6M. HBSS-HEPES buffer was used as the negative control for the standard agonists. Cells were excited with LED (light emitting diode) excitation at 470-495 nm and emission was measured through an emission filter at 515-575 nm. Assay plates were read for 3.5 minutes using the FLIPR^TETRA. The peak increase in fluorescence intensity was recorded for each well. On each plate, negative controls, dose response of positive controls, and co-treatments of antagonist-agonist for each dose were in triplicates. Standard agonists were as follows: DP=BW 245C, EP1-EP4=PGE2, FP=17-phenyl-PGF2α, IP=Cicaprost, and TP=U-46619. […]

Assay [2] has as its target T2, human recombinant prostanoid FP receptor (Homo sapiens, UniProt P43088).
T2 construct: expressed in transfected cells
The assay can be described thus: FLIPR Ca2+ signaling, PG antagonist activity, FP. Particulars: antagonism of standard agonist 17-phenyl-PGF2α, HEK-293 EBNA stable cells. On the procedure:
as §1, §2, §3, §4

The target in assay [3] is T3, human recombinant prostanoid EP1 receptor (Homo sapiens, UniProt P34995).
T3 construct: expressed in transfected cells
T3 sequence (P34995 1-402): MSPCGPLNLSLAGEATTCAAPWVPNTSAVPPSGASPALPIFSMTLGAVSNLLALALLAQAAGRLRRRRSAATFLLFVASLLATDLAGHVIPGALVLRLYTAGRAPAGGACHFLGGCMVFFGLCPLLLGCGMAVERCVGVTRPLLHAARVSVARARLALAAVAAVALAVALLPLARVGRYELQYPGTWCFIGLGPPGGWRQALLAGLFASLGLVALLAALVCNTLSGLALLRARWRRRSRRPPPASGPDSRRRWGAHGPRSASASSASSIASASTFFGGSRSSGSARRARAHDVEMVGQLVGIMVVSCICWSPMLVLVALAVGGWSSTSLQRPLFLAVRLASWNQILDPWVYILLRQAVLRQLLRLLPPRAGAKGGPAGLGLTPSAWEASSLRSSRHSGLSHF
The assay can be described thus: FLIPR Ca2+ signaling, PG antagonist activity, EP1. The note with it: antagonism of standard agonist PGE2, HEK-293 EBNA stable cells. Here is the method: as §1, §2, §3, §4

The target of assay [4] is T4, human recombinant prostanoid EP4 receptor (Homo sapiens, UniProt P35408).
T4 construct: expressed in transfected cells; co-transfected with chimeric Gqs-HA
In words: FLIPR Ca2+ signaling, PG antagonist activity, EP4. Particulars: antagonism of standard agonist PGE2, HEK-293 EBNA stable cells with chimeric Gqs. On the procedure: as §1, §2, §3, §4

Assay [5] concerns the target T5, human recombinant prostanoid IP receptor (Homo sapiens, UniProt P43119).
T5 construct: expressed in transfected cells
The assay can be described thus: FLIPR Ca2+ signaling, PG antagonist activity, IP. Particulars: antagonism of standard agonist Cicaprost, HEK-293 EBNA stable cells. On the procedure: as §1, §2, §3, §4

T2 sequence (P43088 whole entry): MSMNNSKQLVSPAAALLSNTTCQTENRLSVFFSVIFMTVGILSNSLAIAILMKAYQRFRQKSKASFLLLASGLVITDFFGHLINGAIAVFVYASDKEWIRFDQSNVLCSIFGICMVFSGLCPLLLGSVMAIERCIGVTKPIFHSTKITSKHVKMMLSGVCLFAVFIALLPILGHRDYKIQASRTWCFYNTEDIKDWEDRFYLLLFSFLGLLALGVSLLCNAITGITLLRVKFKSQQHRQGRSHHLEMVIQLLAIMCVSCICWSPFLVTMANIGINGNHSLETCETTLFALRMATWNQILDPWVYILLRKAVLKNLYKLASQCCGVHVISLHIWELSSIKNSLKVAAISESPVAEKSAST
T4 sequence (P35408 whole entry): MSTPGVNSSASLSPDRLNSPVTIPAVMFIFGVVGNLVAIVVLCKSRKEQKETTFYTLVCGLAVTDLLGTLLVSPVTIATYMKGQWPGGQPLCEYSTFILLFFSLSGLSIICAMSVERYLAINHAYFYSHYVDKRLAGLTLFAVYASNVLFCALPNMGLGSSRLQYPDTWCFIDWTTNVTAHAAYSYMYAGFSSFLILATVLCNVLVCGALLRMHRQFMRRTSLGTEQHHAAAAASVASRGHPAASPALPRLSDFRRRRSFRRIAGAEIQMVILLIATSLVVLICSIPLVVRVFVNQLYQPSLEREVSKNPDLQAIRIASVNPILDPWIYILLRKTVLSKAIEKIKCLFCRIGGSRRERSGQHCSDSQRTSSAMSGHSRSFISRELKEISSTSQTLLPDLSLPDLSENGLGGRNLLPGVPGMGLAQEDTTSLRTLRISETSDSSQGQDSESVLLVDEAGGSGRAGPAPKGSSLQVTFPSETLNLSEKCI
T5 sequence (P43119 whole entry): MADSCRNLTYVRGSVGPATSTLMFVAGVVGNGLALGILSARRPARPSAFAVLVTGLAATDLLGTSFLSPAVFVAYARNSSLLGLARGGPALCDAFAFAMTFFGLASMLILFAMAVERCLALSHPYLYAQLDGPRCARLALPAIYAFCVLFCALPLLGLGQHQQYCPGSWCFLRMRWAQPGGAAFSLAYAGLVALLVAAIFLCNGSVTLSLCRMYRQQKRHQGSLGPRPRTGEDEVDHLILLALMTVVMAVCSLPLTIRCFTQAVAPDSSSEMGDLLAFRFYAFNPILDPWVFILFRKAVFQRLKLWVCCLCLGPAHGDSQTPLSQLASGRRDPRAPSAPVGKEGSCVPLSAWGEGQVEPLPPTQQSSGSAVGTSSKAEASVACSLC

With `CCC(CC)COc1ccc(Br)cc1Cn1ncc(C(=O)O)c1N` [Example 16, 5-amino-1-[5-bromo-2-(2-ethyl-butoxy)-benzyl]-1H-pyrazole-4-carboxylic acid], the Kb in assay [1] turned out to be 50 nM; in assay [2] it was 200 nM; in assay [3] it was 60 nM; in assay [4] it was 300 nM; in assay [5] it was 5100 nM.
